In paper PMC6149819, “Domain IV of Annexin A5 Is Critical for Binding Calcium and Guarantees Its Maximum Binding to the Phosphatidylserine Membrane” (Molecules : A Journal of Synthetic Chemistry and Natural …, 2017):

What was measured:
[1] = target: T1, wtA5 (wild-type anxA5) (Homo sapiens, UniProt P08758); test: isothermal titration calorimetry, one-site model; assay type: binding
T1 construct: non-fusion protein released by SspDnaB intein self-cleavage, His6-CBD-intein removed; E. coli BL21(DE3); forward primer encodes AQVLRG directly after the intein (initiator Met absent)
T1 sequence (P08758 2-320): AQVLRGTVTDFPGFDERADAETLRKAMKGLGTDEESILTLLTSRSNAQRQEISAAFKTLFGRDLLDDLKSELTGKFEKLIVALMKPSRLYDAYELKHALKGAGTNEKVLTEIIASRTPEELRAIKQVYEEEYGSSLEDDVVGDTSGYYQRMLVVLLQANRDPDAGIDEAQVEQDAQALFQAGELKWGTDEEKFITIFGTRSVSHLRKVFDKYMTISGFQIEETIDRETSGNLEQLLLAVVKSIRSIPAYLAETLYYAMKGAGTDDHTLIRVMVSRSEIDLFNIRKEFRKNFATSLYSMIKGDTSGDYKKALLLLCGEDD
Text: isothermal titration calorimetry, one-site model on wtA5 (wild-type anxA5)

[2] = target: T2, ctA5 (C-terminal truncated anxA5, lacking domain IV) (Homo sapiens, UniProt P08758, DEL255-320); test: isothermal titration calorimetry, one-site model; assay type: binding
T2 construct: domain IV (last 66 residues) deleted; reverse primer ends at AYLAET; non-fusion protein released by SspDnaB intein self-cleavage, His6-CBD-intein removed; E. coli BL21(DE3); initiator Met absent
T2 sequence (P08758 2-254): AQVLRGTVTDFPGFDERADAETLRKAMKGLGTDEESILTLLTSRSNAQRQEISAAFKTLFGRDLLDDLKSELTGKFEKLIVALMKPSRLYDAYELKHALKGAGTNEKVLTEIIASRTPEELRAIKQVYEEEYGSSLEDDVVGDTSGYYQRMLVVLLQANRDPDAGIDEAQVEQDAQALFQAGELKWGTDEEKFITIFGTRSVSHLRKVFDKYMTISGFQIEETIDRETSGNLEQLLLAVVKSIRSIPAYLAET
Text: isothermal titration calorimetry, one-site model on ctA5 (C-terminal truncated anxA5, lacking domain IV)

Kd [1]: 55.9 ± 6.8 µM | Kd [2]: 158 ± 15.4 µM
SMILES: CCCCCCCC/C=C\CCCCCCCC(=O)O[C@H](COC(=O)CCCCCCCCCCCCCCC)COP(=O)(O)OC[C@H](N)C(=O)O [POPS]
